Measured values as given in patent publication US5202315A, “Cephalosporin compounds” (Lucky, Ltd., priority 1989, dated 1993).
Converted amounts (≈) assume the structure as drawn.

Experiments:
Pseudomonas aeruginosa = test: Antibacterial activity against clinically isolated strains, MIC; format: cell-based
[1] = In-vivo absorbency (plasma concentrations & pharmacokinetic parameters); set-up: species or system SD rat (male); conditions: plasma, SD male rat, iv 20 mg/kg, read-out: Plasma Conc.
[2] = tested on: Staphylococcus aureus methicillin susceptible; test: Antibacterial activity against clinically isolated strains, MIC; format: cell-based; conditions: methicillin susceptible, 42 clinical isolates, broth microdilution test
Escherichia coli = test: as above; format: cell-based; conditions: 38 clinical isolates, broth microdilution test
Klebsiella pneumoniae = test: as above; format: cell-based; conditions: 10 clinical isolates, broth microdilution test
[3] = tested on: Citrobacter freundii ATCC 8090; test: Antibacterial activity, MIC; format: cell-based; conditions: ATCC8090, ATCC 8090, agar two-fold dilution, 37° C., 20 hours, read-out: MIC
Method in brief: (§1)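 MIC by two-fold serial dilution in Mueller-Hinton agar; inoculum 2 μl at 10^7 CFU/ml; 37 °C, 20 h.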

[4] = tested on: Serratia marcescens ATCC 27117; test: Antibacterial activity, MIC; format: cell-based; conditions: ATCC27117, ATCC 27117, agar two-fold dilution, 37° C., 20 hours, read-out: MIC
Method in brief: as §1

[5] = tested on: Salmonella typhimurium ATCC 14028; test: Antibacterial activity, MIC; format: cell-based; conditions: Salmonella enterica; ATCC 14028; agar two-fold dilution, 37° C., 20 hours; read-out: MIC
Method in brief: as §1

[6] = tested on: Enterobacter cloacae ATCC 27508; test: Antibacterial activity, MIC; format: cell-based; conditions: ATCC27508, ATCC 27508, agar two-fold dilution, 37° C., 20 hours, read-out: MIC
Method in brief: as §1

[7] = tested on: Micrococcus luteus ATCC 9341; test: Antibacterial activity, MIC; format: cell-based; conditions: ATCC9341, ATCC 9341, agar two-fold dilution, 37° C., 20 hours, read-out: MIC
Method in brief: as §1

[8] = tested on: Klebsiella pneumoniae ATCC 10031; test: Antibacterial activity, MIC; format: cell-based; conditions: ATCC10031, ATCC 10031, agar two-fold dilution, 37° C., 20 hours, read-out: MIC
Method in brief: as §1

[9] = tested on: Enterobacter aerogenes ATCC 29751; test: Antibacterial activity, MIC; format: cell-based; conditions: Klebsiella aerogenes, ATCC29751; ATCC 29751; agar two-fold dilution, 37° C., 20 hours; read-out: MIC
Method in brief: as §1

[10] = tested on: Escherichia coli ATCC 25922; test: Antibacterial activity, MIC; format: cell-based; conditions: ATCC25922, agar two-fold dilution, 37° C., 20 hours
Method in brief: as §1

[11] = tested on: Staphylococcus epidermidis ATCC 12228; test: Antibacterial activity, MIC; format: cell-based; conditions: ATCC12228, ATCC 12228, agar two-fold dilution, 37° C., 20 hours, read-out: MIC
Method in brief: as §1

[12] = tested on: Morganella morganii ATCC 8076h; test: Antibacterial activity, MIC; format: cell-based; conditions: ATCC8076H, agar two-fold dilution, 37° C., 20 hours
Method in brief: as §1

[13] = tested on: Providencia rettgeri ATCC 9250; test: Antibacterial activity, MIC; format: cell-based; conditions: ATCC9250, agar two-fold dilution, 37° C., 20 hours
Method in brief: as §1

[14] = tested on: Pseudomonas aeruginosa ATCC 25619; test: Antibacterial activity, MIC; format: cell-based; conditions: ATCC25619, ATCC 25619, agar two-fold dilution, 37° C., 20 hours, read-out: MIC
Method in brief: as §1

[15] = tested on: Pseudomonas aeruginosa ATCC 27853; test: Antibacterial activity, MIC; format: cell-based; conditions: ATCC27853, ATCC 27853, agar two-fold dilution, 37° C., 20 hours, read-out: MIC
Method in brief: as §1

[16] = tested on: Bacillus cereus ATCC 11778; test: Antibacterial activity, MIC; format: cell-based; conditions: ATCC11778, ATCC 11778, agar two-fold dilution, 37° C., 20 hours, read-out: MIC
Method in brief: as §1

[17] = tested on: Pseudomonas aeruginosa ATCC 10145; test: Antibacterial activity, MIC; format: cell-based; conditions: ATCC10145, ATCC 10145, agar two-fold dilution, 37° C., 20 hours, read-out: MIC
Method in brief: as §1

[18] = tested on: Shigella flexneri ATCC 11836; test: Antibacterial activity, MIC; format: cell-based; conditions: ATCC11836, agar two-fold dilution, 37° C., 20 hours
Method in brief: as §1

[19] = tested on: Shigella sonnei ATCC 11060; test: Antibacterial activity, MIC; format: cell-based; conditions: ATCC11060, ATCC 11060, agar two-fold dilution, 37° C., 20 hours, read-out: MIC
Method in brief: as §1

[20] = tested on: Staphylococcus aureus ATCC 6538p; test: Antibacterial activity, MIC; format: cell-based; conditions: ATCC6538P, ATCC 6538p, agar two-fold dilution, 37° C., 20 hours, read-out: MIC
Method in brief: as §1

[21] = tested on: Bacillus megaterium ATCC 9885; test: Antibacterial activity, MIC; format: cell-based; conditions: Priestia megaterium, ATCC9885; ATCC 9885; agar two-fold dilution, 37° C., 20 hours; read-out: MIC
Method in brief: as §1

[22] = tested on: Acinetobacter calcoaceticus ATCC 15473; test: Antibacterial activity, MIC; format: cell-based; conditions: ATCC15473, ATCC 15473, agar two-fold dilution, 37° C., 20 hours, read-out: MIC
Method in brief: as §1

[23] = tested on: Proteus vulgaris ATCC 6059; test: Antibacterial activity, MIC; format: cell-based; conditions: ATCC6059, ATCC 6059, agar two-fold dilution, 37° C., 20 hours, read-out: MIC
Method in brief: as §1

[24] = tested on: Escherichia coli ATCC 10536; test: Antibacterial activity, MIC; format: cell-based; conditions: ATCC10536, agar two-fold dilution, 37° C., 20 hours
Method in brief: as §1

[25] = tested on: Staphylococcus aureus ATCC 10537; test: Antibacterial activity, MIC; format: cell-based; conditions: ATCC10537, ATCC 10537, agar two-fold dilution, 37° C., 20 hours, read-out: MIC
Method in brief: as §1

Work on CC(O/N=C(\C(=O)NC1C(=O)N2C(C(=O)[O-])=C(CSc3nc(N)cc(N)[n+]3C)CSC12)c1csc(N)n1)C(=O)O (stereo not shown) [Compound I-4] yielded an MIC90 (Pseudomonas aeruginosa) of 16 µg/mL (≈ 26.2 µM), an MIC50 (Pseudomonas aeruginosa; 54 clinical isolates, broth microdilution test) of 4 µg/mL (≈ 6.56 µM) and a concentration at 1 min ([1]; 1 min) of 64000 ng/mL. The concentration at 2.5 min ([1]; 2.5 min) was 42000 ng/mL, the concentration at 5 min ([1]; 5 min) was 32000 ng/mL and the concentration at 10 min ([1]; 10 min) was 14000 ng/mL. The concentration at 20 min ([1]; 20 min) was 7300 ng/mL, the concentration at 40 min ([1]; 40 min) was 4500 ng/mL and the MIC50 [2] was 4 µg/mL (≈ 6.56 µM). The MIC90 ([2]; read-out: MIC 90%) was 4 µg/mL (≈ 6.56 µM), the MIC50 (Escherichia coli) was 0.031 µg/mL (≈ 0.0508 µM) and the MIC90 (Escherichia coli) was 0.063 µg/mL (≈ 0.103 µM). For the same molecule, the MIC50 (Klebsiella pneumoniae) was 0.031 µg/mL (≈ 0.0508 µM), the MIC90 (Klebsiella pneumoniae; read-out: MIC 90%) was 0.13 µg/mL (≈ 0.213 µM) and the MIC [3] was 0.063 µg/mL (≈ 0.103 µM). For the same molecule, the MIC [4] was 0.063 µg/mL (≈ 0.103 µM), the MIC [5] was 0.13 µg/mL (≈ 0.213 µM) and the MIC [6] was 0.016 µg/mL (≈ 0.0262 µM). The MIC [7] was 0.5 µg/mL (≈ 0.82 µM), the MIC [8] was 0.031 µg/mL (≈ 0.0508 µM) and the MIC [9] was 1 µg/mL (≈ 1.64 µM). For the same molecule, the MIC [10] was 0.031 µg/mL (≈ 0.0508 µM), the MIC [11] was 2 µg/mL (≈ 3.28 µM) and the MIC [12] was at most 0.008 µg/mL. The MIC [13] was at most 0.008 µg/mL, the MIC [14] was 2 µg/mL (≈ 3.28 µM) and the MIC [15] was 1 µg/mL (≈ 1.64 µM). It also gave an MIC [16] of over 128 µg/mL, an MIC [17] of 2 µg/mL (≈ 3.28 µM) and an MIC [18] of 0.031 µg/mL (≈ 0.0508 µM). For the same molecule, the MIC [19] was 0.031 µg/mL (≈ 0.0508 µM), the MIC [20] was 4 µg/mL (≈ 6.56 µM) and the MIC [21] was 1 µg/mL (≈ 1.64 µM). The MIC [22] was 4 µg/mL (≈ 6.56 µM), the MIC [23] was 0.031 µg/mL (≈ 0.0508 µM) and the MIC [24] was 0.063 µg/mL (≈ 0.103 µM). For the same molecule, the MIC [25] was 2 µg/mL (≈ 3.28 µM).
